Laboratory results from PMC6888004 (International Journal of Molecular Sciences, 2019).

Columns and labels:
[1] = set-up: method as in PMID 10639165; conditions: cited from earlier work
endometrial cancer = test system: endometrial cancer; set-up: method as in https://clinicaltrials.gov; conditions: phase III, ref https://clinicaltrials.gov; cited from earlier work
EBC-1 cells [2] = test: Colocalization with lysosomes in EBC-1 cells by confocal microscopy; assay type: cell-based; conditions: 10 µM, 24 h
Method: EBC-1 cells were seeded in eight well Ibidi® μ-Slide microscopic slides (2 × 10^4 cells/well) and allowed to adhere for 48 h. Cells were then treated with 10 µM [D-Lys^6(FITC)]–GnRH-I in complemented EMEM (Lonza) and incubated in a humidified, 5% CO2 atmosphere incubator for 24 h at 37 °C.
To investigate colocalization of [D-Lys^6(FITC)]–GnRH-I with lysosomes (in Figure 6), after [D-Lys^6(FITC)]–GnRH-I treatment (24 h, 10 µM), Lysoview 633 dye was added to the treating medium and the cells were incubated for a further 1 h. After incubation, cells were washed twice with EMEM. Images of the living cells were acquired with a Zeiss Confocal LSM 710 microscope [Objective: Plan-Apochromat 63×/1.40 Oil DIC M27. Pinhole: 1.95 AU. Laser wavelength: 488 nm and 633 nm. Detection wavelength: 496–573 nm; 633–693 nm)].

EBC-1 cells [3] = test: Cellular uptake in EBC-1 cells by flow cytometry; assay type: cell-based; conditions: 0.1, 1, 10 µM; 2, 6, 24, 72 h
Method: 2 × 10^4 EBC-1 cells per well were seeded onto 24 well plates (VWR) and allowed to adhere for 48 h. Cells were treated with [D-Lys^6(FITC)]–GnRH-I in complemented EMEM (Lonza) at 0.1, 1, and 10 µM, and incubated in a humidified, 5% CO2 atmosphere incubator for 2, 6, 24, and 72 h at 37 °C.
After incubation, supernatant was discarded and the cells were washed twice with PBS (Lonza). Trypsin (Thermo Fisher Scientific, cat. no.: 25300062) was added for 10 min at 37 °C. Cells were pelleted (250× g, 4 min, 4 °C) in flow cytometry tubes, resuspended in 300 µL PBS and kept at 4 °C for the rest of the experiment. The fluorescence intensity of the conjugate-stained cells was analysed using a FACS Calibur flow cytometer (BD Biosciences, San Jose, CA) using channel FL1. Data were evaluated by CellQuest Pro software (BD Biosciences). The relative median fluorescent intensity (MFI) values (based on DMSO control) were calculated.
Calculation formula: relative MFI compound;xh;yµM=MFI compound;xh;yµM/MFI DMSO control;xh • x time (h) • y concentration (µM)

Row | Compound | half-life in human serum [1] | clinical outcome compared to doxorubicin (endometrial cancer) | colocalization with lysosome marker Lysoview 633 (EBC-1 cells [2]) | cellular uptake (EBC-1 cells [3])
1 | zoptarelin doxorubicin | approximately 2 h | could neither extend overall survival, nor improve the safety profile | – | –
2 | CC(C)C[C@H](NC(=O)[C@@H](CCCCNC(=S)Nc1ccc2c(c1)C(=O)OC21c2ccc(O)cc2Oc2cc(O)ccc21)NC(=O)[C@H](Cc1ccc(O)cc1)NC(=O)[C@H](CO)NC(=O)[C@H](Cc1c[nH]c2ccccc12)NC(=O)[C@H](Cc1c[nH]cn1)NC(=O)[C@@H]1CCC(=O)N1)C(=O)N[C@@H](CCCNC(=N)N)C(=O)N1CCC[C@H]1C(=O)NCC(N)=O [[D-Lys^6(FITC)]–GnRH-I] | – | – | highly correlated | concentration-dependent dynamic uptake
